Measurements from paper PMC10178848, “Modulating fast skeletal muscle contraction protects skeletal muscle in animal models of Duchenne muscular dystrophy” (The Journal of Clinical Investigation, 2023).

Tested on: psoas S1 (fast skeletal muscle myosin)
Assay: Stopped-flow analysis of Pi release from myosin
Format: biochemical, rabbit
Set-up: dose or concentration left out as unconfirmed
Conditions: preincubation with myosin 30 minutes prior to actin
Experimental: The rate of Pi release from myosin with actin utilized a fluorescent phosphate binding protein, as described previously ([63]). Experiments were performed in 10 mM MOPS, pH 7.0; 5 mM KCL; 1 mM EGTA; 1 mM DTT; 0.5 mM MgCl2. ATP and ADP were removed by incubation with apyrase ([64]). Prior to mixing with 1 mM ATP in a stopped flow device, compound was incubated with 6 μM psoas S1 at 25°C for 30 minutes.

Structure (SMILES): Cc1ccc(S(=O)(=O)NCc2ccccc2)cc1 [BTS, N-benzyl-p-toluene sulfonamide, reference compound]
- rate of Pi release from myosin with actin: decreased the rate of Pi release
